Read-outs that look alike come from different tables or passages of the source.
Key:
[1] = type: in vivo, Sprague-Dawley rats
Protocol: β-d-N^4-hydroxycytidine (NHC) was dosed orally by gavage to male Sprague-Dawley rats (n=3) at 10 mg/kg in 3.9% citric acid and 96.1% water, pH 2.8; Molnupiravir at 12.7 mg/kg in 2.5% kolliphor RH 40, 10% polyethylene glycol 300 and 87.5% water, pH 5.3. […]

in vitro [2] = type: in vitro ADME, Human
Protocol: Duplicate aliquots of test compound or positive control substrate (GS-7340) were added to S9 stock diluted with 100 mM phosphate buffered saline, pH 7.4, to obtain a protein concentration of 1.0 mg/mL. The S9 metabolic reactions were initiated by the addition of the substrates to the S9 reaction mixture to a final concentration of 2 μM. At 0, 10, 20, 30, 60 and 120 min, 25 μL aliquots of the reaction mixture were transferred to plates containing 225 μl of IS/Q solution. After quenching, the plates were centrifuged at 3000×g for 30 minutes, and 150 μL aliquots of each supernatant were diluted with 150 μL water. Aliquots (10 μL) of the diluted supernatant were analyzed on a Thermo Q-Exactive mass spectrometer as described below.
Quantification of test compounds and controls was performed by analyte/internal standard peak area ratio (PAR) values measured on a Thermo Q-Exactive mass spectrometer coupled to a Dionex UltiMate 3000 HPLC with a Leap Technologies HTC PAL autosampler. The column used was a Thermo Hypersil GOLD (1.9 μm particle size, 2.1×50 mm). Mobile phase A consisted of 0.1% (v/v) formic acid in water. Mobile phase B consisted of 0.1% (v/v) formic acid in acetonitrile. Elution of analytes was achieved by a series of linear gradients of acetonitrile in water containing 0.1% (v/v) formic acid. The mass spectrometer was calibrated on a weekly basis and mass tolerance of 5 ppm was used.

in vitro [3] = settings: human, PrestoBlue
SARS-CoV-2-Nluc viruses = experiment: microbe, parasite or virus in culture; type: cell-based
in vitro [4] = type: cell-based; settings: human
Protocol: The cytotoxicity of compounds was determined in A549-hACE2 cells in the following manner. Compounds (200 nL) were spotted onto 384-well Grenier plates prior to seeding 5000 A549-hACE2 cells/well in a volume of 40 μL culture medium. The plates were incubated at 37° C. for 48 hours with 5% CO2. On day 2, 40 μL of CellTiter-Glo (Promega) was added and mixed 5 times.

in vitro [5] = settings: hamster
in vitro [6] = settings: African green monkey
RSV strain A2 = experiment: RSV antiviral assay (Hep2), EC50-Hep2/B1-384; type: cell-based; settings: human respiratory syncytial virus, HEp-2, 96 h; Hep2 cells, 4 days, Cell-Titer Glo
[7] = system: RSV-Fluc (Respiratory Syncytial virus strain A2 containing the firefly luciferase reporter); experiment: microbe, parasite or virus in culture; type: cell-based; settings: human respiratory syncytial virus, 72 h, NHBE cells, three days
[8] = system: SARS-CoV-2 2019-nCoV/USA-WA1/2020; type: in vivo; settings: in vivo
Plasma stability = settings: human
CES2 = target: T1, CES2 (Homo sapiens, UniProt O00748); experiment: CES1/2 stability, CES2; type: in vitro ADME; settings: CES2 Supersome preparation; Supersome preparations, CES 1.5 mg/ml, 2 μM substrate, pH 7.4, 37° C.; read-out: CES2 T1/2
T1 construct: purchased
T1 sequence (O00748 27-559): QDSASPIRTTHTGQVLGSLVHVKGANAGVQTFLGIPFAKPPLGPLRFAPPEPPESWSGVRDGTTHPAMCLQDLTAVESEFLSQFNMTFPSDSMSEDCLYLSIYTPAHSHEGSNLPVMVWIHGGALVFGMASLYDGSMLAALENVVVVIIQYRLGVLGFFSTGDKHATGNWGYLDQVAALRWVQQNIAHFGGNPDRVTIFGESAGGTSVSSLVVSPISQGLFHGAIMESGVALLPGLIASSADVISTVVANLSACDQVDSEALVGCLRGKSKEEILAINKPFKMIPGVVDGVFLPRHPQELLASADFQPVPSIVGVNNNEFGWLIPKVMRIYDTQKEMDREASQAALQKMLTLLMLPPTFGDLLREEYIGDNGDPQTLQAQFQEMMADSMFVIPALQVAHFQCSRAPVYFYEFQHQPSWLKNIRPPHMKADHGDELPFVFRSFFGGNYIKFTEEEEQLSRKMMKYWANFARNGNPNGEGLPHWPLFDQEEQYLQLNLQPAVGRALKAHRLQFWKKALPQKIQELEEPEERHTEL
Protocol: (§1) Test compounds or positive control substrates (oseltamivir for CES1 enzymes or procaine for CES2) were incubated with individual Supersome preparations (final CES concentration 1.5 mg/ml) in 0.1 M potassium phosphate buffer (pH 7.4) at 37° C. Substrates were added to a final concentration of 2 μM to initiate the reaction. The final incubation volume was 250 μL. Aliquots were removed after incubation for 0, 10, 30, 60 and 120 min. The reactions were stopped by the addition of IS/Q. Following protein precipitation and centrifugation, 150 μL of supernatant was diluted with an equal volume of water prior to LC-MS analysis. For procaine 150 μL of supernatant was dried down and reconstituted with 250 μL water. All samples were analyzed by LC-MS and the PAR values were used for quantification.

SARS-CoV-2 = system: SARS-CoV-2; design: species or system ferrets; settings: in vivo, po, 5 mg/kg
CES1 = target: T2, CES1 (Homo sapiens, UniProt P23141); experiment: CES1/2 stability, CES1; type: in vitro ADME; settings: CES1 Supersome preparation; Supersome preparations, CES 1.5 mg/ml, 2 μM substrate, pH 7.4, 37° C.; read-out: CES1 T1/2
T2 construct: purchased
T2 sequence (P23141 18-567): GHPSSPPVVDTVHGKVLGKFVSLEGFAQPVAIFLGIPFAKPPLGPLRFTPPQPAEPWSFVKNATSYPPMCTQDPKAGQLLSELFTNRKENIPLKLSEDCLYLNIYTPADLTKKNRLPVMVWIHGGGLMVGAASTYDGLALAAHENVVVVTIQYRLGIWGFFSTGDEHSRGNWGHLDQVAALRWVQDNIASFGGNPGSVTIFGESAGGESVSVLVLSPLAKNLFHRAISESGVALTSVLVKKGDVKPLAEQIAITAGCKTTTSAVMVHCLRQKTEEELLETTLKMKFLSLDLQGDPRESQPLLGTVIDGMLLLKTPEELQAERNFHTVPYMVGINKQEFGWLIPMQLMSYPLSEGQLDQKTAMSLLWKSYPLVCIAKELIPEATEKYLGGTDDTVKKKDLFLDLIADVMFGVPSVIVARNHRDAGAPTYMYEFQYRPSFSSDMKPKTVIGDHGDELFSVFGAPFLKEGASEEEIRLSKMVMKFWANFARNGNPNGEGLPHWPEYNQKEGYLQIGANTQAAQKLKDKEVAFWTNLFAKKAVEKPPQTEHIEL
Protocol: as §1

[9] = Severe acute respiratory syndrome coronavirus 2, 48 h, read-out: SARS-CoV2 EC50
[10] = male, Sprague-Dawley, rat, in vivo, po, 12.7 mg/kg

Structure (SMILES): O=c1nc(NO)ccn1[C@@H]1O[C@H](CO)[C@@H](O)[C@H]1O [NHC, β-d-N^4-hydroxycytidine]
- NHC AUCinf. ([1]; male Sprague-Dawley rats, plasma, oral NHC 10 mg/kg): 8.48 µM·h
- Cmax ([1]; male Sprague-Dawley rats, plasma, oral NHC 10 mg/kg, read-out: NHC Cmax): 3.13 µM
- NHC F % (based on NHC mg-eq dose) ([1]; male Sprague-Dawley rats, oral NHC 10 mg/kg): 37.0%
- Human GI S9 T1/2 (in vitro [2]; 2 μM substrate, 1.0 mg/mL protein, pH 7.4): >700 min

Structure (SMILES): CCC(CC)COC(=O)[C@H](C)N[P@](=O)(OC[C@H]1O[C@@](C#N)(c2ccc3c(N)ncnn23)[C@H](O)[C@@H]1O)Oc1ccccc1 [Remdesivir]
- CC50 (in vitro [3]; CC50, DF2 HAE, primary diseased (asthma) HAE donor DF2, 72 hours): > 33000 nM
- CC50 (in vitro [3]; CC50, M2 HAE, primary HAE donor M2, 72 hours): 102000 nM
- CC50 (in vitro [3]; CC50, M6 HAE, primary HAE donor M6, 72 hours): > 100000 nM
- EC50 (SARS-CoV-2-Nluc viruses; Severe acute respiratory syndrome coronavirus 2, host cells A549-ACE2, read-out: EC50, WA1/2020-nano luciferase): 67 nM
- CC50 (in vitro [4]; host cells A549-ACE2, read-out: CC50, A549-ACE2): > 16700 nM
- CC50 (in vitro [5]): > 100000 nM
- CC50 (in vitro [6]): > 100000 nM

Structure (SMILES): N#C[C@@]1(c2ccc3c(N)ncnn23)O[C@H](COC(=O)C2CC3CCCC3C2)[C@@H](O)[C@H]1O (stereo partly drawn) [Compound 24, ((2R,3S,4R,5R)-5-(4-aminopyrrolo[2,1-f][1,2,4]triazin-7-yl)-5-cyano-3,4-dihydroxytetrahydrofuran-2-yl)methyl octahydropentalene-2-carboxylate]
- EC50 (RSV strain A2): 185 nM
- EC50 [7]: 801 nM
- EC50 (SARS-CoV-2-Nluc viruses; [9]): 800 nM
- CC50 at 48 h (in vitro [4]): > 10000 nM

Structure (SMILES): CCCC(=O)OC[C@H]1O[C@@](C#N)(c2ccc3c(N)ncnn23)[C@H](O)[C@@H]1O [Compound 25, ((2R,3S,4R,5R)-5-(4-aminopyrrolo[2,1-f][1,2,4]triazin-7-yl)-5-cyano-3,4-dihydroxytetrahydrofuran-2-yl)methyl butyrate]
- EC50 (RSV strain A2): 224 nM
- EC50 [7]: 601 nM
- EC50 (SARS-CoV-2-Nluc viruses; [9]): 1220 nM
- CC50 at 48 h (in vitro [4]): > 10000 nM

Structure (SMILES): CC(C)C(=O)OC[C@H]1O[C@@H](n2ccc(NO)nc2=O)[C@H](O)[C@@H]1O [Molnupiravir, reference compound]
- Cmax [1, 10]: 4.09 µM
- NHC AUCinf. [1, 10]: 8.96 µM·h
- NHC F % (based on NHC mg-eq dose) [1, 10]: 39.1%
- NHC F % (based on molnupiravir dose) [1, 10]: 30.8%
- Clinical signs versus vehicle animals [8]: No significant differences in clinical signs
- Shed virus load (nasal lavages) versus vehicle [8]: lower in all treated animals than in the vehicle group
- Viral RNA copies in nasal lavages and turbinates versus vehicle [8]: statistically significant mean reduction
- Virus burden in the turbinates [8]: reduced burden in the turbinates
- half-life at 2 μM (in vitro [2]; human, s9, pH 7.4): > 700 min
- half-life at 2 μM (Plasma stability): 51 min
- half-life at 2 μM (CES2): 9.8 min
- Change from vehicle, nasal lavage AUC(0-96) PFU/mL (SARS-CoV-2): −2.34 log10
- Change from vehicle, nasal lavage AUC(0-96) RNA copies/μL (SARS-CoV-2): −0.87 log10
- Change from vehicle, nasal turbinate terminal PFU/mL (SARS-CoV-2): −3.79 log10
- Change from vehicle, nasal turbinate terminal RNA copies/μL (SARS-CoV-2): −2.68 log10
- half-life at 2 μM (CES1): 30 to 51 min

Structure (SMILES): CC(C)C(=O)O[C@H]1[C@@H](OC(=O)C(C)C)[C@](C#N)(c2ccc3c(N)ncnn23)O[C@@H]1COC(=O)C(C)(C)N [Compound 11, (2R,3R,4R,5R)-5-(((2-amino-2-methylpropanoyl)oxy)methyl)-2-(4-aminopyrrolo[2,1-f][1,2,4]triazin-7-yl)-2-cyanotetrahydrofuran-3,4-diyl bis(2-methylpropanoate)]
- EC50 (RSV strain A2): 387 nM
- EC50 [7]: 301 nM
- EC50 (SARS-CoV-2-Nluc viruses; [9]): 2600 nM
- CC50 at 48 h (in vitro [4]): > 100000 nM

Structure (SMILES): N#C[C@@]1(c2ccc3c(N)ncnn23)O[C@H](COC(=O)C2CCC2)[C@@H](O)[C@H]1O [Compound 26, ((2R,3S,4R,5R)-5-(4-aminopyrrolo[2,1-f][1,2,4]triazin-7-yl)-5-cyano-3,4-dihydroxytetrahydrofuran-2-yl)methyl cyclobutanecarboxylate]
- EC50 (RSV strain A2): 337 nM
- EC50 [7]: 1080 nM
- EC50 (SARS-CoV-2-Nluc viruses; [9]): 1190 nM
- CC50 at 48 h (in vitro [4]): > 10000 nM

Structure (SMILES): CCC(=O)OC[C@H]1O[C@@](C#N)(c2ccc3c(N)ncnn23)[C@H](OC(=O)CC)[C@@H]1OC(=O)CC [Compound 3, (2R,3R,4R,5R)-2-(4-aminopyrrolo[2,1-f][1,2,4]triazin-7-yl)-2-cyano-5-((propionyloxy)methyl)tetrahydrofuran-3,4-diyl dipropionate]
- EC50 (RSV strain A2): 425 nM
- EC50 [7]: 831 nM
- EC50 (SARS-CoV-2-Nluc viruses; [9]): 3100 nM
- CC50 at 48 h (in vitro [4]): > 100000 nM

Structure (SMILES): CC(C)(C)C(=O)OC[C@H]1O[C@@](C#N)(c2ccc3c(N)ncnn23)[C@H](O)[C@@H]1O [Compound 32, ((2R,3S,4R,5R)-5-(4-aminopyrrolo[2,1-f][1,2,4]triazin-7-yl)-5-cyano-3,4-dihydroxytetrahydrofuran-2-yl)methyl pivalate]
- EC50 (RSV strain A2): 590 nM
- EC50 [7]: 581 nM
- EC50 (SARS-CoV-2-Nluc viruses; [9]): 2320 nM
- CC50 at 48 h (in vitro [4]): > 50000 nM

Structure (SMILES): CC(C)C(=O)O[C@H]1[C@@H](OC(=O)C(C)C)[C@](C#N)(c2ccc3c(N)ncnn23)O[C@@H]1COC(=O)[C@@H](N)C(C)C [Compound 12, (2R,3R,4R,5R)-5-(((L-valyl)oxy)methyl)-2-(4-aminopyrrolo[2,1-f][1,2,4]triazin-7-yl)-2-cyanotetrahydrofuran-3,4-diylbis(2-methylpropanoate)]
- EC50 (RSV strain A2): 420 nM
- EC50 [7]: 169 nM
- EC50 (SARS-CoV-2-Nluc viruses; [9]): 3300 nM
- CC50 at 48 h (in vitro [4]): > 50000 nM

Source: patent US11926645B2, “Compounds and methods for treatment of viral infections” (priority 2020, dated 2024)
